Results: patent US20130079373A1, “Substituted Methanesulfonamide Derivatives as Vanilloid Receptor Ligands” (priority 2011, published 2013)

biological target: T1, vanilloid receptor 1 (VR1/TRPV1 receptor) (Homo sapiens, UniProt Q8NER1); test: Functional testing on the vanilloid receptor 1 (FLIPR Ca2+ influx assay, capsaicin stimulation); assay type: cell-based; details: @1 μM compound; Cap = capsaicin; human being; read-out: inhibition (as a percentage), (f) (human being) Cap
T1 construct: expressed in transfected cells; host or cells: CHO K1
Procedure: Furthermore, preference may be given to compounds according to the invention that cause a 50 percent displacement of capsaicin, which is present at a concentration of 100 nM, in a FLIPR assay with CHO K1 cells which were transfected with the human VR1 gene at a concentration of less than 2,000 nM, preferably less than 1,000 nM, particularly preferably less than 300 nM, most particularly preferably less than 100 nM, even more preferably less than 75 nM, additionally preferably less than 50 nM, most preferably less than 10 nM.
In the process, the Ca^2+ influx is quantified in the FLIPR assay with the aid of a Ca^2+-sensitive dye (type Fluo-4, Molecular Probes Europe BV, Leiden, the Netherlands) in a fluorescent imaging plate reader (FLIPR, Molecular Devices, Sunnyvale, USA), as described hereinafter.
I. Functional Testing Carried Out on the Vanilloid Receptor 1 (VR1/TRPV1 Receptor) […]
The number of cells in the suspension is set to 3×10^5 per mL and 150 μL of this suspension are in each case introduced into a recess in the cell culture plates coated as described hereinbefore. In the incubator the plates are left for two to three days at 37° C., 5% by volume of CO2 and 95% relative humidity. Subsequently, the cells are loaded with 2 μM of Fluo-4 and 0.01% by volume of Pluronic F127 (Molecular Probes Europe BV, Leiden, the Netherlands) in HBSS buffer (Hank's buffered saline solution, Gibco Invitrogen GmbH, Karlsruhe, Germany) for 30 min at 37° C., washed 3 times with HBSS buffer and after further incubation for 15 minutes at room temperature used for Ca^2+ measurement in a FLIPR assay. The Ca^2+ dependent fluorescence is in this case measured before and after the addition of substances (λex=488 nm, λem=540 nm). Quantification is carried out by measuring the highest fluorescence intensity (FC, fluorescence counts) over time.
The FLIPR protocol consists of 2 substance additions. First the compounds to be tested (10 μM) are pipetted onto the cells and the Ca^2+ influx is compared with the control (capsaicin 10 μM). This provides the result in % activation based on the Ca^2+ signal after the addition of 10 μM of capsaicin (CP). After 5 minutes' incubation, 100 nM of capsaicin are applied and the Ca^2+ influx is also determined.
Desensitising agonists and antagonists lead to suppression of the Ca^2+ influx. The % inhibition is calculated compared to the maximum achievable inhibition with 10 μM of capsazepine.
Triple analyses (n=3) are carried out and repeated in at least 3 independent experiments (N=4).
Starting from the percentage displacement caused by different concentrations of the compounds to be tested of general formula I, IC50 inhibitory concentrations which cause a 50-percent displacement of capsaicin were calculated. Ki values for the test substances were obtained by conversion by means of the Cheng-Prusoff equation (Cheng, Prusoff; Biochem. Pharmacol. 22, 3099-3108, 1973).
The affinity of the compounds according to the invention for the vanilloid receptor 1 (VR1/TRPV1 receptor) was determined as described hereinbefore (pharmacological method I).

T1 sequence (Q8NER1 whole entry): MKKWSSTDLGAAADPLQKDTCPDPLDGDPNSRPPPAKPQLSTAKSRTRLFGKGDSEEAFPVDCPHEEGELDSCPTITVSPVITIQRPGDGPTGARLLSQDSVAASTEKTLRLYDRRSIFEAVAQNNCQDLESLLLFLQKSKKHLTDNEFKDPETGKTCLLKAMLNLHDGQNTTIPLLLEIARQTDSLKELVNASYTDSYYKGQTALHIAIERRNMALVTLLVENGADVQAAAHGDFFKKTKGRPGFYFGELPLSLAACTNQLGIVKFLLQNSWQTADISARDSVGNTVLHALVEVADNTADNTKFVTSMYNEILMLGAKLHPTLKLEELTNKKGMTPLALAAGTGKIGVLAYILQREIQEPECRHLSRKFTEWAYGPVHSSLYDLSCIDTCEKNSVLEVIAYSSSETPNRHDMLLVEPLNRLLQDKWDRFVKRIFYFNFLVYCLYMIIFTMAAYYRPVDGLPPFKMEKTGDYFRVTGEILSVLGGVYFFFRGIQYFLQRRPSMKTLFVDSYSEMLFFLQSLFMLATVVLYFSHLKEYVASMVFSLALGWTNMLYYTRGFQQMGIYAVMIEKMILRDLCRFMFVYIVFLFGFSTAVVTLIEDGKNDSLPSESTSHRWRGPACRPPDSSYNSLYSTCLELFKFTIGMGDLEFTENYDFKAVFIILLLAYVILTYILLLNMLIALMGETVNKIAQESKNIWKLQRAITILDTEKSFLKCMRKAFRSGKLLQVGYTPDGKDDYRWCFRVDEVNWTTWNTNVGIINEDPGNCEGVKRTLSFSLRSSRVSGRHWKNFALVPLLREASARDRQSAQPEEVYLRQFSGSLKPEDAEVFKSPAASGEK

inhibition at 1 µM	SMILES
15%	COc1cc(C(C)C(=O)NCc2ccc(C(F)(F)F)nc2OC(C)C)ccc1CNS(C)(=O)=O (stereo not shown) [Example 27, N-((2-isopropoxy-6-(trifluoromethyl)pyridin-3-yl)methyl)-2-(3-methoxy-4-(methylsulfonamidomethyl)phenyl)propanamide]

same assay, conditions: @5 μM compound; Cap = capsaicin; human being; read-out: inhibition (as a percentage), (f) (human being) Cap

inhibition at 5 µM	SMILES
18%	COCCCc1nc(C(F)(F)F)ccc1CNC(=O)C(C)c1ccc(CNS(C)(=O)=O)c(F)c1 (stereo not shown) [Example 2, 2-(3-fluoro-4-(methylsulfonamidomethyl)phenyl)-N-((2-(3-methoxypropyl)-6-(trifluoromethyl)pyridin-3-yl)methyl)propanamide]
13%	COCCOCc1nc(C(F)(F)F)ccc1CNC(=O)C(C)c1ccc(CNS(C)(=O)=O)c(F)c1 (stereo not shown) [Example 3, 2-(3-fluoro-4-(methylsulfonamidomethyl)phenyl)-N-((2-((2-methoxyethoxy)methyl)-6-(trifluoromethyl)pyridin-3-yl)methyl)propanamide]

same assay, conditions: Cap = capsaicin; human being; Ki from IC50 by the Cheng-Prusoff equation; read-out: (f) Ki (human being) [nM] Cap

Ki	SMILES
14 nM	CCCCCc1nc(C(F)(F)F)ccc1CNC(=O)C(C)c1ccc(CNS(C)(=O)=O)c(F)c1 (stereo not shown) [Example 1, 2-(3-fluoro-4-(methylsulfonamidomethyl)phenyl)-N-((2-pentyl-6-(trifluoromethyl)pyridin-3-yl)methyl)propanamide]
12 nM	CC(C(=O)NCc1ccc(C(F)(F)F)nc1/C=C/C(C)(C)C)c1ccc(CNS(C)(=O)=O)c(F)c1 (stereo not shown) [Example 4, (E)-N-((2-(3,3-dimethylbut-1-enyl)-6-(trifluoromethyl)pyridin-3-yl)methyl)-2-(3-fluoro-4-(methylsulfonamidomethyl)phenyl)propanamide]
13 nM	CC(C(=O)NCc1ccc(C(F)(F)F)nc1C1CCCC1)c1ccc(CNS(C)(=O)=O)c(F)c1 (stereo not shown) [Example 5, N-((2-cyclopentyl-6-(trifluoromethyl)pyridin-3-yl)methyl)-2-(3-fluoro-4-(methylsulfonamidomethyl)phenyl)propanamide]
15 nM	CC(C(=O)NCc1ccc(C(F)(F)F)nc1C1CCCCC1)c1ccc(CNS(C)(=O)=O)c(F)c1 (stereo not shown) [Example 6, N-((2-cyclohexyl-6-(trifluoromethyl)pyridin-3-yl)methyl)-2-(3-fluoro-4-(methylsulfonamidomethyl)phenyl)propanamide]
37 nM	CC(C)Oc1nc(C(F)(F)F)ccc1CNC(=O)C(C)c1ccc(CNS(C)(=O)=O)c(F)c1 (stereo not shown) [Example 15, 2-(3-fluoro-4-(methylsulfonamidomethyl)phenyl)-N-((2-isopropoxy-6-(trifluoromethyl)pyridin-3-yl)methyl)propanamide]
13 nM	CC(C(=O)NCc1ccc(C(F)(F)F)nc1OC1CCCC1)c1ccc(CNS(C)(=O)=O)c(F)c1 (stereo not shown) [Example 20, N-((2-(cyclopentyloxy)-6-(trifluoromethyl)pyridin-3-yl)methyl)-2-(3-fluoro-4-(methylsulfonamidomethyl)phenyl)propanamide]
111 nM	CC(C(=O)NCc1ccc(C(F)(F)F)nc1OC1CCOCC1)c1ccc(CNS(C)(=O)=O)c(F)c1 (stereo not shown) [Example 25, 2-(3-fluoro-4-(methylsulfonamidomethyl)phenyl)-N-((2-(tetrahydro-2H-pyran-4-yloxy)-6-(trifluoromethyl)pyridin-3-yl)methyl)propanamide]
70 nM	CCS(=O)(=O)NCc1ccc(C(C)C(=O)NCc2ccc(C(F)(F)F)nc2OC(C)C)cc1F (stereo not shown) [Example 30, 2-(4-(ethylsulfonamidomethyl)-3-fluorophenyl)-N-((2-isopropoxy-6-(trifluoromethyl)pyridin-3-yl)methyl)propanamide]
10 nM	CC(C)Oc1nc(C(F)(F)F)ccc1CNC(=O)Nc1ccc(CNS(N)(=O)=O)cc1 [Example 32, 1-{[2-isopropoxy-6-(trifluoromethyl)pyridin-3-yl]methyl}-3-{4-[(sulfamoylamino)methyl]phenyl}urea]
1 nM	NS(=O)(=O)NCc1ccc(NC(=O)NCc2ccc(C(F)(F)F)nc2OC2CCCC2)cc1 [Example 34, 1-{[2-cyclopentyloxy-6-(trifluoromethyl)pyridin-3-yl]methyl}-3-{4-[(sulfamoylamino)methyl]phenyl}urea]
16 nM	CCOc1nc(C(F)(F)F)ccc1CNC(=O)Nc1ccc(CNS(N)(=O)=O)c(F)c1 [Example 35, 1-{3-fluoro-4-[(sulfamoylamino)methyl]phenyl}-3-{[2-ethoxy-6-(trifluoromethyl)pyridin-3-yl]methyl}urea]
6 nM	CC(C)Oc1nc(C(F)(F)F)ccc1CNC(=O)Nc1ccc(CNS(N)(=O)=O)c(F)c1 [Example 36, 1-{3-fluoro-4-[(sulfamoylamino)methyl]phenyl}-3-{[2-isopropoxy-6-(trifluoromethyl)pyridin-3-yl]methyl}urea]
5 nM	NS(=O)(=O)NCc1ccc(NC(=O)NCc2ccc(C(F)(F)F)nc2OC2CCCC2)cc1F [Example 38, 1-{3-fluoro-4-[(sulfamoylamino)methyl]phenyl}-3-{[2-cyclopentyloxy-6-(trifluoromethyl)pyridin-3-yl]methyl}urea]
44 nM	CC(C(=O)NCc1ccc(C(F)(F)F)nc1SC1CCCCC1)c1ccc(CNS(C)(=O)=O)c(F)c1 (stereo not shown) [Example 43, N-((2-(cyclohexylthio)-6-(trifluoromethyl)pyridin-3-yl)methyl)-2-(3-fluoro-4-(methylsulfonamidomethyl)phenyl)propanamide]
83 nM	CC(C(=O)NCc1ccc(C(F)(F)F)nc1-c1ccc2cc[nH]c2c1)c1ccc(CNS(C)(=O)=O)c(F)c1 (stereo not shown) [Example 44, N-((2-(1H-indol-6-yl)-6-(trifluoromethyl)pyridin-3-yl)methyl)-2-(3-fluoro-4-(methylsulfonamidomethyl)phenyl)propanamide]
59 nM	CC(C(=O)NCc1ccc(C(F)(F)F)nc1-c1ccc2c(c1)OCO2)c1ccc(CNS(C)(=O)=O)c(F)c1 (stereo not shown) [Example 45, N-((2-(benzo[d][1,3]dioxol-5-yl)-6-(trifluoromethyl)pyridin-3-yl)methyl)-2-(3-fluoro-4-(methylsulfonamidomethyl)phenyl)propanamide]
46 nM	CC(C(=O)NCc1ccc(C(F)(F)F)nc1-c1ccoc1)c1ccc(CNS(C)(=O)=O)c(F)c1 (stereo not shown) [Example 46, 2-(3-fluoro-4-(methylsulfonamidomethyl)phenyl)-N-((2-(furan-3-yl)-6-(trifluoromethyl)pyridin-3-yl)methyl)propanamide]

SMILES	Ki
CCCCOc1nc(C(F)(F)F)ccc1CNC(=O)C(C)c1ccc(CNS(C)(=O)=O)c(F)c1 (stereo not shown) [Example 16, N-((2-butoxy-6-(trifluoromethyl)pyridin-3-yl)methyl)-2-(3-fluoro-4-(methylsulfonamidomethyl)phenyl)propanamide]	8 nM
CCCCOc1nc(C(F)(F)F)ccc1CNC(=O)C(C)c1ccc(CNS(C)(=O)=O)c(OC)c1 (stereo not shown) [Example 29, N-((2-butoxy-6-(trifluoromethyl)pyridin-3-yl)methyl)-2-(3-methoxy-4-(methylsulfonamidomethyl)phenyl)propanamide]	61 nM
CCCCOc1nc(C(F)(F)F)ccc1CNC(=O)C(C)c1ccc(CNS(=O)(=O)CC)c(F)c1 (stereo not shown) [Example 31, N-((2-butoxy-6-(trifluoromethyl)pyridin-3-yl)methyl)-2-(4-(ethylsulfonamidomethyl)-3-fluorophenyl)propanamide]	15 nM
CCCCOc1nc(C(F)(F)F)ccc1CNC(=O)Nc1ccc(CNS(N)(=O)=O)cc1 [Example 33, 1-{[2-butoxy-6-(trifluoromethyl)pyridin-3-yl]methyl}-3-{4-[(sulfamoylamino)methyl]phenyl}urea]	8 nM
CCCCOc1nc(C(F)(F)F)ccc1CNC(=O)Nc1ccc(CNS(N)(=O)=O)c(F)c1 [Example 37, 1-{3-fluoro-4-[(sulfamoylamino)methyl]phenyl}-3-{[2-butoxy-6-(trifluoromethyl)pyridin-3-yl]methyl}urea]	7 nM
